US10889584B2, “Bicyclic bis-heteroaryl derivatives as modulators of protein aggregation” (UCB Biopharma SRL, priority 2017, dated 2021)

biological target: T1, α-synuclein peptide fragments (Peptide 4F, CTGFVKKDQLGK) (Homo sapiens, UniProt P37840); assay: In-vitro fluorescence polarization assay with alpha-synuclein peptide fragment (4F); format: biochemical; conditions: peptide 4F 100 nM, 120 min at room temperature, compound 33.3 to 0.015 microM, 50 mM HEPES pH 7.4, 50 mM NaCl, read-out: IC50 (inhibition of self-aggregation of α-synuclein peptide fragment 4F)
T1 construct: purchased American Peptide
Procedure: Biological Example 1: In-Vitro Fluorescence Polarization Assay with Alpha-Synuclein Peptide Fragment (4F)
The fluorescence polarization assay tests the ability of compounds to inhibit the self-aggregation of α-synuclein peptide fragments. Peptides were incubated for 120 min at room temperature in the presence or absence of test compounds (compound concentrations were 33.3 to 0.015 microM). Samples were read on a Beckman Coulter DTX 880 plate reader in fluorescence polarization mode using excitation at 485 nm and emission at 520 nm. Data was analyzed using a four-parameter logistic fit (XLFit, IDBS Software). Peptide 4F (CTGFVKKDQLGK (SEQ ID NO: 1)) was prepared by American Peptide. Fresh peptide samples were reconstituted in purified water at 5 mM and diluted into 50 mM HEPES pH 7.4 with 50 mM NaCl to 100 nM final concentration. Solid compounds were dissolved in DMSO (10 mM), and then diluted serially in DMSO (300×) followed by dilution in buffer (1×) to provide solutions with a consistent final DMSO concentration of 0.33%.

In order of falling IC50:
1. CCCCC(Cc1c[nH]c2ccccc12)NC(=O)c1cnc(N2CCn3nncc3C2)s1 (centres unmarked) [Example 6, 2-(6,7-dihydro-4H-triazolo[1,5-a]pyrazin-5-yl)-N-[1-(1H-indol-3-ylmethyl)pentyl]thiazole-5-carboxamide]  2600 nM
2. CCCCC(Cc1c[nH]c2ccccc12)NC(=O)c1cnc(N2Cc3cn[nH]c3C2)s1 (centres unmarked) [Example 1, 2-(4,6-dihydro-1H-pyrrolo[3,4-c]pyrazol-5-yl)-N-[1-(1H-indol-3-ylmethyl)pentyl]thiazole-5-carboxamide]  2400 nM
3. CCCCC(Cc1c[nH]c2ccccc12)NC(=O)c1cnc(N2CCn3cnnc3C2)s1 (centres unmarked) [Example 2, 2-(6,8-dihydro-5H-[1,2,4]triazolo[4,3-a]pyrazin-7-yl)-N-[1-(1H-indol-3-ylmethyl)pentyl]thiazole-5-carboxamide]  2300 nM
4. CCCCC(Cc1c[nH]c2ccccc12)NC(=O)c1cnc(N2CCc3[nH]ncc3C2)s1 (centres unmarked) [Example 3, N-[1-(1H-indol-3-ylmethyl)pentyl]-2-(1,4,6,7-tetrahydropyrazolo[4,3-c]pyridin-5-yl)thiazole-5-carboxamide]  2200 nM
5. CCCCC(Cc1c[nH]c2ccccc12)NC(=O)c1cnc(N2CCn3ncnc3C2)s1 (centres unmarked) [Example 7, 2-(6,8-dihydro-5H-[1,2,4]triazolo[1,5-a]pyrazin-7-yl)-N-[1-(1H-indol-3-ylmethyl)pentyl]thiazole-5-carboxamide]  2200 nM
6. CCCCC(Cc1c[nH]c2ccccc12)NC(=O)c1cnc(N2Cc3cnn(C)c3C2)s1 (centres unmarked) [Example 5, N-[1-(1H-indol-3-ylmethyl)pentyl]-2-(1-methyl-4,6-dihydropyrrolo[3,4-c]pyrazol-5-yl)thiazole-5-carboxamide]  2100 nM
7. CCCCC(Cc1c[nH]c2ccccc12)NC(=O)c1cnc(N2CCn3c(C)nnc3C2)s1 (centres unmarked) [Example 14, N-[1-(1H-indol-3-ylmethyl)pentyl]-2-(3-methyl-6,8-dihydro-5H-[1,2,4]triazolo[4,3-a]pyrazin-7-yl)thiazole-5-carboxamide]  1700 nM
8. CCCCC(Cc1c[nH]c2ccccc12)NC(=O)c1cnc(N2CCn3nc(C)nc3C2)s1 (centres unmarked) [Example 8, N-[1-(1H-indol-3-ylmethyl)pentyl]-2-(2-methyl-6,8-dihydro-5H-[1,2,4]triazolo[1,5-a]pyrazin-7-yl)thiazole-5-carboxamide]  1600 nM
9. CCCCC(Cc1c[nH]c2ccccc12)NC(=O)c1cnc(N2CCn3ccnc3C2)s1 (centres unmarked) [Example 17, 2-(6,8-dihydro-5H-imidazo[1,2-a]pyrazin-7-yl)-N-[1-(1H-indol-3-ylmethyl)pentyl]thiazole-5-carboxamide]  1600 nM
10. CCCCC(Cc1c[nH]c2ccccc12)NC(=O)c1cnc(N2CCn3cncc3C2)s1 (centres unmarked) [Example 9, 2-(6,8-dihydro-5H-imidazo[1,5-a]pyrazin-7-yl)-N-[1-(1H-indol-3-ylmethyl)pentyl]thiazole-5-carboxamide]  1500 nM
11. CCCCC(Cc1c[nH]c2ccccc12)NC(=O)c1cnc(N2CCn3nc(C)cc3C2)s1 (centres unmarked) [Example 4, N-[1-(1H-indol-3-ylmethyl)pentyl]-2-(2-methyl-6,7-dihydro-4H-pyrazolo[1,5-a]pyrazin-5-yl)thiazole-5-carboxamide]  1400 nM
12. CCCCC(Cc1c[nH]c2ccccc12)NC(=O)c1cnc(N2CCn3c(cc(C(F)(F)F)cc3=O)C2)s1 (centres unmarked) [Example 13, N-[1-(1H-indol-3-ylmethyl)pentyl]-2-[6-oxo-8-(trifluoromethyl)-3,4-dihydro-1H-pyrido[1,2-a]pyrazin-2-yl]thiazole-5-carboxamide]  1400 nM
13. CCCCC(Cc1c[nH]c2ccccc12)NC(=O)c1cnc(N2CCc3oncc3C2)s1 (centres unmarked) [Example 15, 2-(6,7-dihydro-4H-isoxazolo[4,5-c]pyridin-5-yl)-N-[1-(1H-indol-3-ylmethyl)pentyl]thiazole-5-carboxamide]  1300 nM
14. CCCCC(Cc1c[nH]c2ccccc12)NC(=O)c1cnc(N2CCn3nccc3C2)s1 (centres unmarked) [Example 19, 2-(6,7-dihydro-4H-pyrazolo[1,5-a]pyrazin-5-yl)-N-[1-(1H-indol-3-ylmethyl)pentyl]thiazole-5-carboxamide]  1300 nM
15. CCCCC(Cc1c[nH]c2ccccc12)NC(=O)c1cnc(N2CCn3c(nnc3C(F)(F)F)C2)s1 (centres unmarked) [Example 18, N-[1-(1H-indol-3-ylmethyl)pentyl]-2-[3-(trifluoromethyl)-6,8-dihydro-5H-[1,2,4]triazolo[4,3-a]pyrazin-7-yl]thiazole-5-carboxamide]  1200 nM
16. CCCCC(Cc1c[nH]c2ccccc12)NC(=O)c1cnc(N2CCc3nn(C)cc3C2)s1 (centres unmarked) [Example 20, N-[1-(1H-indol-3-ylmethyl)pentyl]-2-(2-methyl-6,7-dihydro-4H-pyrazolo[4,3-c]pyridin-5-yl)thiazole-5-carboxamide]  1200 nM
17. CCCCC(Cc1c[nH]c2ccccc12)NC(=O)c1cnc(N2CCc3c(cnn3C)C2)s1 (centres unmarked) [Example 16, N-[1-(1H-indol-3-ylmethyl)pentyl]-2-(1-methyl-6,7-dihydro-4H-pyrazolo[4,3-c]pyridin-5-yl)thiazole-5-carboxamide]  1000 nM
18. CCCCC(Cc1c[nH]c2ccccc12)NC(=O)c1cnc(N2CCc3noc(C(F)(F)F)c3C2)s1 (centres unmarked) [Example 12, N-[1-(1H-indol-3-ylmethyl)pentyl]-2-[3-(trifluoromethyl)-6,7-dihydro-4H-isoxazolo[4,3-c]pyridin-5-yl]thiazole-5-carboxamide]  900 nM
19. CCCCC(Cc1c[nH]c2ccccc12)NC(=O)c1cnc(N2CCc3onc(C)c3C2)s1 (centres unmarked) [Example 10, N-[1-(1H-indol-3-ylmethyl)pentyl]-2-(3-methyl-6,7-dihydro-4H-isoxazolo[4,5-c]pyridin-5-yl)thiazole-5-carboxamide]  840 nM
20. CCCCC(Cc1c[nH]c2ccccc12)NC(=O)c1cnc(N2CCc3onc(C(F)(F)F)c3C2)s1 (centres unmarked) [Example 11, N-[1-(1H-indol-3-ylmethyl)pentyl]-2-[3-(trifluoromethyl)-6,7-dihydro-4H-isoxazolo[4,5-c]pyridin-5-yl]thiazole-5-carboxamide]  800 nM
